Where “and” joins values, the source holds several entries; their conditions need not be identical. Identical values can stand only once. Counter-ions that a name gives are not always drawn. Like-named read-outs stand apart in the source and are kept apart here.
How the values were obtained:
MCL-1 = MCL-1 (Homo sapiens (Human), UniProt Q07820, K194A/K197A/R201A); test: Protein-protein interaction assay MCL-1/Noxa BH3 peptide (MCL-1 assay, TR-FRET); type: binding; settings: MBP-MCL-1 / Noxa BH3 peptide, median
Chain of MCL-1 (Q07820 whole entry K194A/K197A/R201A, looked up, the tested form may be a part): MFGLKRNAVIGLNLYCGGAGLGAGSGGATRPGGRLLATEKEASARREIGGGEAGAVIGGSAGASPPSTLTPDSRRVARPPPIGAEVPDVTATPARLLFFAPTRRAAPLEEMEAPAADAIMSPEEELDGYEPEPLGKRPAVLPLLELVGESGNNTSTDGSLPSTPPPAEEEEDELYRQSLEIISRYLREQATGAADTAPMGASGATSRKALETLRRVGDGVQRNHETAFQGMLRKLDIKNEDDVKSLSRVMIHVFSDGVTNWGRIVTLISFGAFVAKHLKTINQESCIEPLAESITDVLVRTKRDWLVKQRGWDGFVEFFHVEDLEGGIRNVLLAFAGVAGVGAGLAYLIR
How it was run: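 MBP-fused MCL-1 (aa 173-329, 1 nM) was pre-incubated with compound for 10 min at 22° C, then biotinylated Noxa BH3 peptide (1 nM) was added with anti-MBP-Eu cryptate and streptavidin-XL665. Incubation was 1 h at 22° C, then overnight at 4° C, in Tris pH 7 buffer. The 665/620 nm ratio over 11 concentrations (0.1 nM-20 μM) gave IC50 by 4-parameter fit.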

AMO-1 = test: Antiproliferation assay (Assay 7), AMO-1; type: cell-based; settings: CellTiter-Glo, several values per example
How it was run: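 Cells were exposed to compound for 72 hours at 37° C. Viability was measured by CellTiter-Glo luminescence. A day 0 plate read at the start served as the time-zero reference.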

[1] = Homo sapiens, AMO1, 72 h, read-out: Antiproli AMO-1 [M] IC50
[2] = 72 hours, read-out: Antiproli AMO-1 [M] IC50

| Structure (SMILES) | IC50 (MCL-1) [nM] | IC50 (AMO-1; [1]) [M] | IC50 (AMO-1; [2]) | IC50 (AMO-1; 72 hours, listed as 08, read-out: Antiproli AMO-1 [M] IC50) [M] | IC50 (AMO-1; 72 hours, listed as 07, read-out: Antiproli AMO-1 [M] IC50) [M] |
| --- | --- | --- | --- | --- | --- |
| CCc1c2c(nn1C)CN(C)S(=O)(=O)CCCn1c(C(=O)O)c(CCCOc3cccc4ccccc34)c3ccc(Cl)c-2c31 [Example 20, (rac)-13-Chloro-12-ethyl-8,11-dimethyl-1-(3-(naphthalen-1-yloxy)propyl)-5,6,9,11-tetrahydro-4H,8H-pyrazolo[3′,4′:4,5][1]thia[2,8]diazacycloundecino[6,7,8-hi]indole-2-carboxylic acid 7,7-dioxide] | 2.7 | 2.8e-06 | – | – | – |
| CCc1c2c(nn1C)CN(C)S(=O)(=O)CCCn1c(C(=O)O)c(CCCOc3cccc4c3CCCC4)c3ccc(Cl)c-2c31 [Example 23, (rac)-13-Chloro-12-ethyl-8,11-dimethyl-1-(3-((5,6,7,8-tetrahydronaphthalen-1-yl)oxy)propyl)-4,5,6,8,9,11-hexahydropyrazolo[3′,4′:4,5][1,2,8]thiadiazacycloundecino[6,7,8-hi]indole-2-carboxylic acid 7,7-dioxide] | 3.3 | 3.8e-06 | – | – | – |
| CCc1c2c(nn1C)CN(CC)S(=O)(=O)CCCn1c(C(=O)O)c(CCCOc3cccc4cc(F)ccc34)c3ccc(Cl)c-2c31 (single isomer, unassigned; enantiomer 1) [Example 57, (+)-4-chloro-3,14-diethyl-7-{3-[(6-fluoronaphthalen-1-yl)oxy]propyl}-2-methyl-13,13-dioxo-10,11,12,13,14,15-hexahydro-2H-13lambda^6-pyrazolo[3′,4′:4,5][1,2,8]thiadiazacycloundecino[6,7,8-hi]indole-8-carboxylic acid N-ethylethanamine Salt (Enantiomer 1)] | 0.48 | – | 1.6e-07 M and 1.3e-07 M | – | – |
| CCc1c2c(nn1C)CN(C)S(=O)(=O)CCCn1c(C(=O)O)c(CCCOc3cccc4cc(F)ccc34)c3ccc(Cl)c-2c31 (single isomer, unassigned; enantiomer 2) [Example 37, (−)-4-chloro-3-ethyl-7-{3-[(6-fluoronaphthalen-1-yl)oxy]propyl}-2,14-dimethyl-13,13-dioxo-10,11,12,13,14,15-hexahydro-2H-13lambda^6-pyrazolo[3′,4′:4,5][1,2,8]thiadiazacycloundecino-[6,7,8-hi]indole-8-carboxylic acid (Enantiomer 2)] | 11 | – | 2.8e-05 M | – | – |
| CCc1c2c(nn1C)CN(C)S(=O)(=O)CCCn1c(C(=O)O)c(CCCOc3cccc4cc(F)ccc34)c3ccc(F)c-2c31 (single isomer, unassigned; enantiomer 1) [Example 8, (+)-3-Ethyl-4-fluoro-7-{3-[(6-fluoronaphthalen-1-yl)oxy]propyl}-2,14-dimethyl-13,13-dioxo-10,11,12,13,14,15-hexahydro-2H-13λ^6-pyrazolo[3′,4′:4,5][1,2,8]thiadiazacycloundecino-[6,7,8-hi]indole-8-carboxylic acid (Enantiomer 1)] | 1.7 | – | – | 1.5e-06 | – |
| Cc1c2c(nn1C)C(CCN1CCOCC1)N(C)S(=O)(=O)CCCn1c(C(=O)O)c(CCCOc3cccc4cc(F)ccc34)c3ccc(Cl)c-2c31 (racemic) [Example 65, (rac)-4-chloro-7-{3-[(6-fluoronaphthalen-1-yl)oxy]propyl}-2,3,14-trimethyl-15-(rac)-[2-(morpholin-4-yl)ethyl]-13,13-dioxo-10,11,12,13,14,15-hexahydro-2H-13lambda^6-pyrazolo[3′,4′:4,5][1,2,8]thiadiazacycloundecino[6,7,8-hi]indole-8-carboxylic acid (Mixture of Stereoisomers)] | 0.94 | – | 7.1e-08 M | – | – |
| CCc1c2c(nn1C)CN(C)S(=O)(=O)CCCn1c(C(=O)O)c(CCCOc3cc(C)c(Cl)c(C)c3)c3ccc(F)c-2c31 (racemic) [Example 33, (rac)-1-(3-(4-Chloro-3,5-dimethylphenoxy)propyl)-12-ethyl-13-fluoro-8,11-dimethyl-5,6,9,11-tetrahydro-4H,8H-pyrazolo[3′,4′:4,5][1]thia[2,8]diazacycloundecino[6,7,8-hi]indole-2-carboxylic acid 7,7-dioxide] | 4.2 | 4.8e-06 | – | – | – |
| CCc1c2c(nn1C)C(CCN1CCOCC1)N(C)S(=O)(=O)CCCn1c(C(=O)O)c(CCCOc3cccc4cc(F)ccc34)c3ccc(Cl)c-2c31 (racemic) [Example 73, (rac)-(4-chloro-3-ethyl-7-{3-[(6-fluoronaphthalen-1-yl)oxy]propyl}-2,14-dimethyl-15-[2-(morpholin-4-yl)ethyl]-13,13-dioxo-10,11,12,13,14,15-hexahydro-2H-13lambda^6-pyrazolo[3′,4′:4,5][1,2,8]thiadiazacycloundecino[6,7,8-hi]indole-8-carboxylic acid (Racemate 1)] | 0.34 | – | 2.6e-08 M and 2.5e-08 M | – | – |
| Cc1c2c(nn1C)CN(C)S(=O)(=O)CCCn1c(C(=O)O)c(CCCOc3ccc(F)c4ccccc34)c3ccc(F)c-2c31 [Example 30, (rac)-13-Fluoro-1-(34(4-fluoronaphthalen-1-yl)oxy)propyl)-8,11,12-trimethyl-5,6,9,11-tetrahydro-4H,8H-pyrazolo[3′,4′:4,5][1]thia[2,8]diazacycloundecino[6,7,8-hi]indole-2-carboxylic acid 7,7-dioxide] | 5.1 | 7e-06 | – | – | – |
| CCc1c2c(nn1C)C(C)N(C)S(=O)(=O)CCCn1c(C(=O)O)c(CCCOc3cccc4ccccc34)c3cccc-2c31 (racemic) [Example 18, 12-Ethyl-8,9,11-trimethyl-1-(3-(naphthalen-1-yloxy)propyl)-5,6,9,11-tetrahydro-4H,8H-pyrazolo[3′,4′:4,5][1]thia[2,8]diazacycloundecino[6,7,8-hi]indole-2-carboxylic acid 7,7-dioxide (Mixture of Stereoisomers)] | 7.8 | 9.6e-06 | – | – | – |
| Cc1c2c(nn1C)CN(C1CC1)S(=O)(=O)CCCn1c(C(=O)O)c(CCCOc3cccc4cc(F)ccc34)c3ccc(Cl)c-2c31 (single isomer, unassigned; enantiomer 1) [Example 42, (−)-4-chloro-14-cyclopropyl-7-{3-[(6-fluoro-1-naphthyl)oxy]propyl}-2,3-dimethyl-11,12,14,15-tetrahydro-2H,10H-pyrazolo[3′,4′:4,5][1,2,8]thiadiazacycloundecino[6,7,8-hi]indole-8-carboxylic acid 13,13-dioxide N-diethylamine salt (Enantiomer 1)] | 0.34 | – | 2.6e-07 M and 4.7e-07 M | – | – |
| Cc1c2c(nn1C)CN(C)S(=O)(=O)CCCn1c(C(=O)O)c(CCCOc3cccc4cc(F)ccc34)c3ccc(F)c-2c31 (single isomer, unassigned; enantiomer 2) [Example 39, (+)-4-fluoro-7-{3-[(6-fluoronaphthalen-1-yl)oxy]propyl}-2,3,14-trimethyl-13,13-dioxo-10,11,12,13,14,15-hexahydro-2H-13lambda^6-pyrazolo[3′,4′:4,5][1,2,8]thiadiazacycloundecino-[6,7,8-hi]indole-8-carboxylic acid (Enantiomer 2)] | 0.89 | – | 1.4e-06 M | – | – |
| CCc1c2c(nn1C)CN(CCN1CCCCC1)S(=O)(=O)CCCn1c(C(=O)O)c(CCCOc3cccc4ccccc34)c3cccc-2c31 (racemic) [Example 14, (rac)-12-Ethyl-11-methyl-1-(3-(naphthalen-1-yloxy)propyl)-8-(2-(piperidin-1-yl)ethyl)-4,5,6,8,9,11-hexahydropyrazolo[3′,4′:4,5][1,2,8]thiadiazacycloundecino[6,7,8-hi]indole-2-carboxylic acid 7,7-dioxide 2,2,2-trifluoroacetic acid salt] | 9.8 | 1.9e-05 | 1.7e-05 M | – | – |
| Cc1c2c(nn1C)C(CCN1CCOCC1)N(C)S(=O)(=O)CCCn1c(C(=O)O)c(CCCOc3cccc4cc(F)ccc34)c3ccc(Cl)c-2c31 (single isomer, unassigned; enantiomer 1) [Example 66, 4-chloro-7-{3-[(6-fluoronaphthalen-1-yl)oxy]propyl}-2,3,14-trimethyl-15-[2-(morpholin-4-yl)ethyl]-13,13-dioxo-10,11,12,13,14,15-hexahydro-2H-13lambda^6-pyrazolo[3′,4′:4,5][1,2,8]thiadiazacycloundecino[6,7,8-hi]indole-8-carboxylic acid (Enantiomer 1)] | 22 | – | 3.7e-06 M | – | – |
| CCc1c2c(nn1C)CN(C)S(=O)(=O)CCCn1c(C(=O)O)c(CCCOc3cccc4cc(F)ccc34)c3ccc(F)c-2c31 (racemic) [Example 7, (rac)-12-Ethyl-13-fluoro-1-(3-((6-fluoronaphthalen-1-yl)oxy)propyl)-8,11-dimethyl-5,6,9,11-tetrahydro-4H,8H-pyrazolo[3′,4′:4,5][1]thia[2,8]diazacycloundecino[6,7,8-hi]indole-2-carboxylic acid 7,7-dioxide] | 1.3 | 2e-06 | – | – | 2.2e-06 |
| CCc1c2c(nn1C)C(CCC1CCOCC1)N(C)S(=O)(=O)CCCn1c(C(=O)O)c(CCCOc3cccc4cc(F)ccc34)c3ccc(Cl)c-2c31 (racemic) [Example 60, (rac)-4-chloro-3-ethyl-7-{3-[(6-fluoro-1-naphthyl)oxy]propyl}-2,14-dimethyl-15-[2-(tetrahydro-2H-pyran-4-yl)ethyl]-11,12,14,15-tetrahydro-2H,10H-pyrazolo[3′,4′:4,5][1,2,8]thiadiazacycloundecino[6,7,8-hi]indole-8-carboxylic acid 13,13-dioxide (Racemate 1)] | 2.4 | – | 4.4e-08 M | – | – |

Reference: patent US11401278B2, “Macrocyclic indole derivatives” (The Broad Institute, Inc., priority 2017, dated 2022)
